Legend:
Test in all cases: Kinase selectivity: percentage inhibition of each specific kinase at 1 μM inhibitor concentration
Assay type in all cases: biochemical
[1] = biological target: each specific kinase (kinase selectivity panel, Table 2) (Homo sapiens, UniProt P53350); settings: PLK1
Protocol: (§1) Values are expressed as percentage inhibition of the each specific kinase at 1 μM inhibitor concentration.

[2] = biological target: each specific kinase (kinase selectivity panel, Table 2) (Homo sapiens, UniProt P06239); settings: Lck
each specific kinase (kinase selectivity panel, Table 2) (Homo sapiens, UniProt P06239), sequence (P06239 whole entry): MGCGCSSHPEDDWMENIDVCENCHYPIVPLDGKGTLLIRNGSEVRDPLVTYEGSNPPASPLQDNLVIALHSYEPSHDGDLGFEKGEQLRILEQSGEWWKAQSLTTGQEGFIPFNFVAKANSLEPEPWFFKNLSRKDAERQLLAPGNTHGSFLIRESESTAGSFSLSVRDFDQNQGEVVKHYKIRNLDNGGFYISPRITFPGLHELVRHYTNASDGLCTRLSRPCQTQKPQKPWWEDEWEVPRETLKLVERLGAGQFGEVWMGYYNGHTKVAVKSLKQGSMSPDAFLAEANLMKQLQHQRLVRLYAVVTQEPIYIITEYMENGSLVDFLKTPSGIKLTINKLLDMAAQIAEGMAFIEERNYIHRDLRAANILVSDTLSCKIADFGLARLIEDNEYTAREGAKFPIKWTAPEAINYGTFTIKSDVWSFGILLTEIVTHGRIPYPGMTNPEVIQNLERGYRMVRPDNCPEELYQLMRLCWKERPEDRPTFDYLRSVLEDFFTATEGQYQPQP
Protocol: as §1

[3] = biological target: each specific kinase (kinase selectivity panel, Table 2) (Homo sapiens, UniProt P04629); settings: TrkA
Protocol: as §1

[4] = biological target: each specific kinase (kinase selectivity panel, Table 2) (Homo sapiens, UniProt Q14680); settings: MELK
each specific kinase (kinase selectivity panel, Table 2) (Homo sapiens, UniProt Q14680), sequence (Q14680 whole entry): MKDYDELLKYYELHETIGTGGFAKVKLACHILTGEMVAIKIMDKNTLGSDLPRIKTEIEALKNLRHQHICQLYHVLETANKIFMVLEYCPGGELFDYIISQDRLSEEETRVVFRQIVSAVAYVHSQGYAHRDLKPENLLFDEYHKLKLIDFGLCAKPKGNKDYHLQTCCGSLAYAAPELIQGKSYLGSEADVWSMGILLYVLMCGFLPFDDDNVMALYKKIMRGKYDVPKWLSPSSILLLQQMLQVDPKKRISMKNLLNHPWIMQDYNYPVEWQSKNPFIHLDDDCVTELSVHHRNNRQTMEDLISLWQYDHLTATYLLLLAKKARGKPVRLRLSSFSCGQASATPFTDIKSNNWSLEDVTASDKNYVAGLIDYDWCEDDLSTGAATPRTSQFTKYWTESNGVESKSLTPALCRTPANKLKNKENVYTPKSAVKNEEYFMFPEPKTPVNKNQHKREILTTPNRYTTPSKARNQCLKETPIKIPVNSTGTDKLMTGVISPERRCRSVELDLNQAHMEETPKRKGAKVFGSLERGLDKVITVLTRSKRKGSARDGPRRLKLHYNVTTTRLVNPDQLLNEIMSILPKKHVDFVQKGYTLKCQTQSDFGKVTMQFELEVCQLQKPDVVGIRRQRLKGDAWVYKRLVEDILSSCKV
Protocol: as §1

[5] = biological target: each specific kinase (kinase selectivity panel, Table 2) (Homo sapiens, UniProt P08069); settings: IGF-1R
Protocol: as §1

[6] = biological target: each specific kinase (kinase selectivity panel, Table 2) (Homo sapiens, UniProt O60285); settings: NUAK1
each specific kinase (kinase selectivity panel, Table 2) (Homo sapiens, UniProt O60285), sequence (O60285 whole entry): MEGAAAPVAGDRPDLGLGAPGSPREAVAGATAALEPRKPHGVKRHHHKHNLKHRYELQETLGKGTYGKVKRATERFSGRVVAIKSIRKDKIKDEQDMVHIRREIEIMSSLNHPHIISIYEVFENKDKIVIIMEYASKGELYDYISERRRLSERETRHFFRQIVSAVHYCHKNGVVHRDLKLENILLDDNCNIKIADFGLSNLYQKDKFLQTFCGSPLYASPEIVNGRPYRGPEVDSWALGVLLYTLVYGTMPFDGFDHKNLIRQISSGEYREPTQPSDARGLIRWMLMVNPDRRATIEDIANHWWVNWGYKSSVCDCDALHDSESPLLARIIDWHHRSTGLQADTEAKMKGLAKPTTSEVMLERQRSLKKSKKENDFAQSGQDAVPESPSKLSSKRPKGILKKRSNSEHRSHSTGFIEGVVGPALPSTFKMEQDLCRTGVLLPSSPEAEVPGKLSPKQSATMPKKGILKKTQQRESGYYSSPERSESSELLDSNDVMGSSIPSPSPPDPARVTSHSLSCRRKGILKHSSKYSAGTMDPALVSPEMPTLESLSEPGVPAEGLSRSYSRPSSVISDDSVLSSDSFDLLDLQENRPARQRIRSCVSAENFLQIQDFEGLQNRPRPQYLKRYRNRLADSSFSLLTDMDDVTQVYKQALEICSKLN
Protocol: as §1

[7] = biological target: each specific kinase (kinase selectivity panel, Table 2) (Homo sapiens, UniProt Q05513); settings: PKCz
Protocol: as §1

[8] = biological target: each specific kinase (kinase selectivity panel, Table 2) (Homo sapiens, UniProt Q15139); settings: PKD1
each specific kinase (kinase selectivity panel, Table 2) (Homo sapiens, UniProt Q15139), sequence (Q15139 whole entry): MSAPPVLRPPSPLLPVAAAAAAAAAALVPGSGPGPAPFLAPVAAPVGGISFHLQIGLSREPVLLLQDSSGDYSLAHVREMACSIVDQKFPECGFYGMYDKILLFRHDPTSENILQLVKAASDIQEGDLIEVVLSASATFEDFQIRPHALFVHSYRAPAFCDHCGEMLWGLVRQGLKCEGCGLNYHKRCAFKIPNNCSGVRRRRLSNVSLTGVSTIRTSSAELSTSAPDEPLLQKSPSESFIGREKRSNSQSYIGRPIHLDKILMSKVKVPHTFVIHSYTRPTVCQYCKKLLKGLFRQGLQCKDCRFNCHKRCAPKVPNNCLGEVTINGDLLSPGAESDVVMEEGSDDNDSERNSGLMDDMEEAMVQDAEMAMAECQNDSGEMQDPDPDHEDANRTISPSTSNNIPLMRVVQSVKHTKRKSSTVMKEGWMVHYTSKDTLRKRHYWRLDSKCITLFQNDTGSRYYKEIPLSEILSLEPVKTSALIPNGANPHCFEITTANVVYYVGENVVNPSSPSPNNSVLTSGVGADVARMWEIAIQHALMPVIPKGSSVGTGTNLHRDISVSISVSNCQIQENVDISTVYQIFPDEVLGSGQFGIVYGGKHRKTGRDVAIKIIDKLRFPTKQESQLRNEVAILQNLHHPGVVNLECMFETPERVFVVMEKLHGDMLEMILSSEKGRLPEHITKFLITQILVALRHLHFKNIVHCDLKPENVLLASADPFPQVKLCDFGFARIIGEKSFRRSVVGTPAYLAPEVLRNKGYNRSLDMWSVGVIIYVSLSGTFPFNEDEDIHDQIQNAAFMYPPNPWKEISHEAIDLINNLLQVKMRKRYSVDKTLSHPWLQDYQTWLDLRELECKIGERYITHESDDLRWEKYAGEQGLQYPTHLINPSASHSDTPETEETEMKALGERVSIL
Protocol: as §1

[9] = biological target: each specific kinase (kinase selectivity panel, Table 2) (Homo sapiens, UniProt P54753); settings: EPH-B3
each specific kinase (kinase selectivity panel, Table 2) (Homo sapiens, UniProt P54753), sequence (P54753 34-998): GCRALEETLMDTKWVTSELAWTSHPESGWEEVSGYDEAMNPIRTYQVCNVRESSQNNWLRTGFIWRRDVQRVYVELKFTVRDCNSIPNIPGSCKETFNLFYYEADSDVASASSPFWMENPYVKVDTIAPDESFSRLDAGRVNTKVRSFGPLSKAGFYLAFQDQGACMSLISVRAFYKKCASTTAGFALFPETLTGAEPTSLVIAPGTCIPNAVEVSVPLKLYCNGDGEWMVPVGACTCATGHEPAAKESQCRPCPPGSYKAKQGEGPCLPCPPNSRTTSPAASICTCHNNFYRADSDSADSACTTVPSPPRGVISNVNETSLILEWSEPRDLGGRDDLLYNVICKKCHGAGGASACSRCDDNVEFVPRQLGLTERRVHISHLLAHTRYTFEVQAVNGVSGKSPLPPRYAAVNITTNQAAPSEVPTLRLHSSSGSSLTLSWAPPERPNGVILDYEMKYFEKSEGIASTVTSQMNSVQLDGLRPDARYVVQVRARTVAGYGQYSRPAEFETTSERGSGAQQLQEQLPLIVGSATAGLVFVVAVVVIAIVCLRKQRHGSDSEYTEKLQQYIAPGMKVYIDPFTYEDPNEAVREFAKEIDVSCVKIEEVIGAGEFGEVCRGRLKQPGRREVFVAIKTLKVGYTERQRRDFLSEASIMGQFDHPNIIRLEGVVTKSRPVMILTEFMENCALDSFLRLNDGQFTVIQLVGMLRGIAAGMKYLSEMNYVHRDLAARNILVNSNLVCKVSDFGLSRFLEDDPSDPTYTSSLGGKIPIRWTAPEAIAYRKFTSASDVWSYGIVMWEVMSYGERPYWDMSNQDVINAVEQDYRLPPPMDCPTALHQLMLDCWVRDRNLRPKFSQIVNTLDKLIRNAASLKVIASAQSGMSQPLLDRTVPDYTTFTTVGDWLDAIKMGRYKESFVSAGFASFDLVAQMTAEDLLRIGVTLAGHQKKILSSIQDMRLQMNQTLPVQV
Protocol: as §1

[10] = biological target: each specific kinase (kinase selectivity panel, Table 2) (Homo sapiens, UniProt P11362); settings: FGF-R1
Protocol: as §1

[11] = biological target: each specific kinase (kinase selectivity panel, Table 2) (Homo sapiens, UniProt O15530); settings: PDK1
Protocol: as §1

[12] = biological target: each specific kinase (kinase selectivity panel, Table 2) (Homo sapiens, UniProt Q8N4C8); settings: MINK1
Protocol: as §1

[13] = biological target: each specific kinase (kinase selectivity panel, Table 2) (Homo sapiens, UniProt P11309); settings: PIM1
each specific kinase (kinase selectivity panel, Table 2) (Homo sapiens, UniProt P11309), sequence (P11309 whole entry): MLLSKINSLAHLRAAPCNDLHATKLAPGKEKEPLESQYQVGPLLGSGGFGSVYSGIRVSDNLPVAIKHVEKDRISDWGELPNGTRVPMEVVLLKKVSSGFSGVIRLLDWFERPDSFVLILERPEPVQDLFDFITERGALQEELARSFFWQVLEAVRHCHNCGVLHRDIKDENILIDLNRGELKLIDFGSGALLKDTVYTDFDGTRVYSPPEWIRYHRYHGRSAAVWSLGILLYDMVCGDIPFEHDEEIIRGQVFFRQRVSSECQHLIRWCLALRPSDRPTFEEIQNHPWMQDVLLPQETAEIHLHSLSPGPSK
Protocol: as §1

[14] = biological target: each specific kinase (kinase selectivity panel, Table 2) (Homo sapiens, UniProt Q9HBH9); settings: MNK2
each specific kinase (kinase selectivity panel, Table 2) (Homo sapiens, UniProt Q9HBH9), sequence (Q9HBH9 whole entry): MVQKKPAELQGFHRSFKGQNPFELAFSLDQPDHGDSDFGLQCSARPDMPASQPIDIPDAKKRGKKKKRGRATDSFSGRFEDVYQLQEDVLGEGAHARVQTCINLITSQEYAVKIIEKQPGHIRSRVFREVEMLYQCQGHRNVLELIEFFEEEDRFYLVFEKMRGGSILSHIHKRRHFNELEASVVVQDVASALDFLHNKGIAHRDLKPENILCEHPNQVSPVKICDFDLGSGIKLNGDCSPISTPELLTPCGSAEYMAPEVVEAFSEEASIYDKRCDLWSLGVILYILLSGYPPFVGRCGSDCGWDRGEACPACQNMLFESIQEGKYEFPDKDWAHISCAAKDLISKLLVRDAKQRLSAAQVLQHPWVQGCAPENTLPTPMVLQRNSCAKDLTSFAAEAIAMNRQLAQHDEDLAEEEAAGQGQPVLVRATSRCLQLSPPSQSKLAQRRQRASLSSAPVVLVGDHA
Protocol: as §1

[15] = biological target: each specific kinase (kinase selectivity panel, Table 2) (Homo sapiens, UniProt O96017); settings: CHK2
each specific kinase (kinase selectivity panel, Table 2) (Homo sapiens, UniProt O96017), sequence (O96017 whole entry): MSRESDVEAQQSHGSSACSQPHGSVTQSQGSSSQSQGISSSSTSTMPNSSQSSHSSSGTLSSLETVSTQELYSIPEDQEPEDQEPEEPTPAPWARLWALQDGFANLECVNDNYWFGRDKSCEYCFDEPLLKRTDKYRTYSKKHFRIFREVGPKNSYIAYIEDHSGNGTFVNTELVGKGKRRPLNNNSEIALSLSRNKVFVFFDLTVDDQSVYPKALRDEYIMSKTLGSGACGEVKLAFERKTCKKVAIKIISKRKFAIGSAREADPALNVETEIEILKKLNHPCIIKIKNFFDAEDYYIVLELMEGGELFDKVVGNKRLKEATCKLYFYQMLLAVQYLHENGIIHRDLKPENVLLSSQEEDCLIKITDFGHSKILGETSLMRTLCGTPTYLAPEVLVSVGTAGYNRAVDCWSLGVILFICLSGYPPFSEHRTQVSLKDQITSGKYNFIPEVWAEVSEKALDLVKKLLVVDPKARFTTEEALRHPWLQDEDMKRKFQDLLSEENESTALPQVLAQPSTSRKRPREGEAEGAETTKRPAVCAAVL
Protocol: as §1

[16] = biological target: each specific kinase (kinase selectivity panel, Table 2) (Homo sapiens, UniProt Q8IW41); settings: PRAK
Protocol: as §1

[17] = biological target: each specific kinase (kinase selectivity panel, Table 2) (Homo sapiens, UniProt Q9HC98); settings: NEK6
Protocol: as §1

Row | Compound | percentage inhibition of PLK1 [1] [percentage] | percentage inhibition of Lck [2] [percentage] | percentage inhibition of TrkA [3] [percentage] | percentage inhibition of MELK [4] [percentage] | percentage inhibition of IGF-1R [5] [percentage] | percentage inhibition of NUAK1 [6] [percentage] | percentage inhibition of PKCz [7] [percentage] | percentage inhibition of PKD1 [8] [percentage] | percentage inhibition of EPH-B3 [9] [percentage] | percentage inhibition of FGF-R1 [10] [percentage] | percentage inhibition of PDK1 [11] [percentage] | percentage inhibition of MINK1 [12] [percentage] | percentage inhibition of PIM1 [13] [percentage] | percentage inhibition of MNK2 [14] [percentage] | percentage inhibition of CHK2 [15] [percentage] | percentage inhibition of PRAK [16] [percentage] | percentage inhibition of NEK6 [17] [percentage]
1 | CC[C@H](C)Oc1nccc2[nH]nc(C)c12 [Example 121, 4-((S)-sec-Butoxy)-3-methyl-1H-pyrazolo[4,3-c]pyridine] | 19 | 0 | 26 | 61 | 46 | 59 | 0 | 29 | 6 | 36 | 13 | 17 | 15 | 7 | 13 | 0 | 6
2 | O=C(CCc1n[nH]c2ccnc(NC3CCCCC3)c12)N1CCC[C@H](c2ccccc2)C1 [Example 172, 3-(4-Cyclohexylamino-1H-pyrazolo[4,3-c]pyridin-3-yl)-1-((R)-3-phenyl-piperidin-1-yl)-propan-1-one] | 3 | 25 | 5 | 5 | 18 | 14 | 10 | 1 | 3 | 0 | 0 | 18 | 0 | 0 | 40 | 0 | 1

Reference: patent publication US20170320870A1 (Medical Research Council Technology, priority 2009, published 2017)
